These are literature values, as cited in patent US6140347A, “Azetidine, pyrrolidine and piperidine derivatives as 5-HT receptor agonists” (Merck Sharp & Dohme Ltd., priority 1996, dated 2000).

Series [1] has as its system human 5-HT1Dα and 5-HT1Dβ receptor subtypes. The note with it: cf. WO-A-91/17174, Table 1.
For series [2] the following is noted: therapeutic doses.

`CNS(=O)(=O)Cc1ccc2[nH]cc(CCN(C)C)c2c1` [sumatriptan]: the “discrimination between the human 5-HT1Dα and 5-HT1Dβ receptor subtypes (in words)” value in series [1] is on record as “barely discriminates”. The “adverse cardiovascular events in humans (in words)” value in series [2] is recorded as “certain adverse cardiovascular events”.
